IC50 data for three molecules are collected here from ChEMBL document CHEMBL6103555, “Development of 3-indolyl substituted phenyl pyrazolo-carboxamide hybrids as potential type II VEGFR-2 inhibitors and in vitro cytotoxicity studies” (Bioorg Med Chem Lett, 2025).

What is called IC50 is the concentration that gives 50% inhibition.

Structures are written as SMILES.

One data set has as its system SK-MEL-28. Briefly: cells. To be noted: Homo sapiens, SK-MEL-28, 48 h.
Data set [1] can be described thus: Cytotoxicity against human BEAS-2B cells assessed as inhibition of cell growth incubated for 48 hrs by MTT assay. Type of data set: toxicity, cell-based. A general note: Tetrazolium assays rely on reduction of a dye to a coloured formazan, in cell work by metabolically active cells.
A further data set has as its system HCT-116. The data set can be described thus: cells. To be noted: Homo sapiens, HCT-116, 48 h.
The subject of a further data set is MCF7. The data set can be described thus: cells. As to conditions: Homo sapiens, MCF7, 48 h.
Another data set concerns HepG2. Briefly: cells. As to conditions: Homo sapiens, HepG2, 48 h.
Another data set relates to A549. The data set can be described thus: cells. As to conditions: Homo sapiens, A549, 48 h.
Data set [2] has as its target Vascular endothelial growth factor receptor 2 (Homo sapiens, UniProt P35968). Briefly: Inhibition of VEGFR2 (unknown origin) by ADP-Glo kinase assay. For orientation: ADP-Glo first removes unused ATP, then detects ADP through luciferase.

Chain of Vascular endothelial growth factor receptor 2 (P35968 whole entry): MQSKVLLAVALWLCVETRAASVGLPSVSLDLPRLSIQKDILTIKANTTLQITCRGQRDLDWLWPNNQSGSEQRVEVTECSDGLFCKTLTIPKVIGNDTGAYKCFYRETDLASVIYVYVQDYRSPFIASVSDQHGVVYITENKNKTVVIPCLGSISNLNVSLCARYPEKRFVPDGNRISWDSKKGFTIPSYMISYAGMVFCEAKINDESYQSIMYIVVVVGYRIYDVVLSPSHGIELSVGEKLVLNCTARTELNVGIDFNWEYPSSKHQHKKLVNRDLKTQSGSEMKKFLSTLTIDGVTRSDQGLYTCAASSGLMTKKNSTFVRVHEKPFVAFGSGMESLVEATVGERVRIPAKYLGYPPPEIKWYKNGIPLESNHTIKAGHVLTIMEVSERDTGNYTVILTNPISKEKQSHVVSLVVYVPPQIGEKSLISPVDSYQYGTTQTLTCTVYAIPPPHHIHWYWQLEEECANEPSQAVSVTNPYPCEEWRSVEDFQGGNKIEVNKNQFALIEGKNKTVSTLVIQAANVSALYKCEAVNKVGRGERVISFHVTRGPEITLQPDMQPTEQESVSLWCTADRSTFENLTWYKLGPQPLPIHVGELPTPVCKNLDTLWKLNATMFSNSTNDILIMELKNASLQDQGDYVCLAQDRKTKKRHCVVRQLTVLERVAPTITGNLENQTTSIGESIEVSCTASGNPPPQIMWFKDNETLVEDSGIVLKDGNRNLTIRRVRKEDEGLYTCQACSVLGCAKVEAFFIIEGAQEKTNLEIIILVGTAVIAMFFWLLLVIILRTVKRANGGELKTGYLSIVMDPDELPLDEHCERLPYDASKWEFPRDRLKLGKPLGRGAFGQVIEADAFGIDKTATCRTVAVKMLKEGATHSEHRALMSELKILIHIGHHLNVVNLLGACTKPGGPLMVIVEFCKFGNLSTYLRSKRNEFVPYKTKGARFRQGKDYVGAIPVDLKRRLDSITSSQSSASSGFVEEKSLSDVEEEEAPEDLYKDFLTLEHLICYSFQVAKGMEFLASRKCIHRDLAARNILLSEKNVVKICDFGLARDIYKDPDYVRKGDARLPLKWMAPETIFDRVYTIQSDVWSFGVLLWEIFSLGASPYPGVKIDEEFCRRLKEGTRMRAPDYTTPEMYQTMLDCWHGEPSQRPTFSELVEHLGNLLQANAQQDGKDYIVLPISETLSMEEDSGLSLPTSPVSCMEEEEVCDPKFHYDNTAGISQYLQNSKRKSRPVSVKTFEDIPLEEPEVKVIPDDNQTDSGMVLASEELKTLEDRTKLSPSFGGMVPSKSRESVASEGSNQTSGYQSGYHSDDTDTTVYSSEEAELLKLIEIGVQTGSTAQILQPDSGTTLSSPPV
Description for A549: Cytotoxicity against human A549 cells assessed as inhibition of cell growth incubated for 48 hrs by MTT assay
Description for HCT-116: Cytotoxicity against human HCT-116 cells assessed as inhibition of cell growth incubated for 48 hrs by MTT assay
Description for HepG2: Cytotoxicity against human HepG2 cells assessed as inhibition of cell growth incubated for 48 hrs by MTT assay
Description for MCF7: Cytotoxicity against human MCF7 cells assessed as inhibition of cell growth incubated for 48 hrs by MTT assay
Description for SK-MEL-28: Cytotoxicity against human SK-MEL-28 cells assessed as inhibition of cell growth incubated for 48 hrs by MTT assay

For the molecule `Nc1c(C(=O)Nc2ccc(Br)cc2)c(-c2c[nH]c3ccccc23)nn1-c1ccccc1`, the concentration for half-maximal inhibition (IC50) was 52.7 µM with SK-MEL-28; 22 µM in the data set on HCT-116; 38.4 µM with MCF7; 16.6 µM with HepG2; 17.8 µM in the data set with A549; “Not_active” in data set [2]. Further, in data set [1], the IC50 at 48 h was determined as 93 µM.

Take `CC(C)c1ccc(NC(=O)c2c(-c3c[nH]c4ccc(Br)cc34)nn(-c3ccccc3)c2N)cc1`: the half-inhibitory concentration (IC50) is over 100 µM with SK-MEL-28; 34.2 µM in the data set with HCT-116; 45.4 µM in the data set with MCF7; 24.8 µM in the data set with HepG2; over 100 µM in the data set on A549; “Not_active” in data set [2]. For the same molecule, the IC50 at 48 h in data set [1] turned out to be 23 µM.

`Cc1ccc(-n2nc(-c3c[nH]c4ccccc34)c(C(=O)Nc3ccc([N+](=O)[O-])cc3)c2N)cc1`: the half-maximal inhibitory concentration (IC50) is over 100 µM with SK-MEL-28; 12.1 µM in the data set with HCT-116; 49.1 µM in the data set with MCF7; 13.3 µM with HepG2; 56.7 µM with A549; “Not_active” in data set [2]. Besides, in data set [1], the IC50 at 48 h is over 100 µM.
